ChEMBL document CHEMBL5137026, “Novel deuterated Mnk1/2 protein degrader VNLG-152R analogs: Synthesis, In vitro Anti-TNBC activities and pharmacokinetics in mice” (Eur J Med Chem, 2022)

Experiments:
MDA-MB-231 [1] = experiment: Antiproliferative activity against human MDA-MB-231 cells measured after 6 days by MTT assay; format: functional; conditions: MDA-MB-231, 144 h, time 6 day
MDA-MB-468 [2] = experiment: Antiproliferative activity against human MDA-MB-468 cells measured after 6 days by MTT assay; format: functional; conditions: MDA-MB-468, 144 h, time 6 day
[3] = Cmax in po dosed CD-1 mouse by LC/MS/MS analysis; format: ADME, organism-based; design: route po; conditions: in vivo
[4] = Tmax in po dosed CD-1 mouse by LC/MS/MS analysis; format: ADME, organism-based; conditions: in vivo
[5] = Half life in po dosed CD-1 mouse by LC/MS/MS analysis; format: ADME, organism-based; conditions: in vivo
[6] = AUC in po dosed CD-1 mouse by LC/MS/MS analysis; format: ADME, organism-based; design: route po; conditions: in vivo
[7] = MRT in po dosed CD-1 mouse by LC/MS/MS analysis; format: ADME, organism-based; conditions: in vivo
MDA-MB-231 [8] = experiment: Induction of apoptosis in human MDA-MB-231 cells assessed as downregulation of […] measured after 24 hrs by SDS PAGE based Western blotting analysis; format: functional, cell-based
MDA-MB-468 [9] = experiment: Induction of apoptosis in human MDA-MB-468 cells assessed as downregulation of […] measured after 24 hrs by SDS PAGE based Western blotting analysis; format: functional, cell-based
MDA-MB-231 [10] = experiment: Induction of apoptosis in human MDA-MB-231 cells assessed as downregulation of Bcl-2 measured after 24 hrs by SDS PAGE based Western blotting analysis; format: functional, cell-based
MDA-MB-468 [11] = experiment: Induction of apoptosis in human MDA-MB-468 cells assessed as downregulation of Bcl-2 measured after 24 hrs by SDS PAGE based Western blotting analysis; format: functional, cell-based
MDA-MB-231 [12] = experiment: Induction of apoptosis in human MDA-MB-231 cells assessed as upregulation of Bax measured after 24 hrs by SDS PAGE based Western blotting analysis; format: functional, cell-based
MDA-MB-468 [13] = experiment: Induction of apoptosis in human MDA-MB-468 cells assessed as upregulation of Bax measured after 24 hrs by SDS PAGE based Western blotting analysis; format: functional, cell-based
MDA-MB-231 [14] = experiment: Downregulation of Mnk1 in human MDA-MB-231 cells measured after 24 hrs by SDS PAGE based Western blotting analysis; format: functional, cell-based
MDA-MB-231 [15] = experiment: Downregulation of PeIF4E in human MDA-MB-231 cells measured after 24 hrs by SDS PAGE based Western blotting analysis; format: functional, cell-based
MDA-MB-231 [16] = experiment: Antiproliferative activity against human MDA-MB-231 cells measured after 24 hrs by MTT assay; format: functional
[17] = dose 5-20 µM, DDE = dose-dependent effect
[18] = dose 5-20 µM, tested as the 2H-labelled form, DDE = dose-dependent effect
[19] = dose 5-20 µM, DDE = dose-dependent effect, tested as the 2H-labelled form

[2H]c1nc([2H])n(C2([2H])CCC(C)(C)C(/C=C/C(C)=C/C=C/C(C)=C/C(=O)Nc3c([2H])c([2H])c(F)c([2H])c3[2H])=C2C)c1[2H] (racemic) showed a GI50 (MDA-MB-231 [1]) of 710 nM, a GI50 (MDA-MB-468 [2]) of 290 nM and a Cmax [3] of 1620 ng/mL. It also gave a Tmax [4] of 2.67 h, a half-life [5] of 10.3 h and an AUC [6] of 22600 ng·h/mL. For the same compound, the MRT [7] was 8.92 h.
For [2H]c1nc([2H])n(C2([2H])CCC(C)(C)C(/C=C/C(C)=C/C=C/C(C)=C/C(=O)Nc3ccc(F)cc3)=C2C)c1[2H] (racemic), the GI50 (MDA-MB-231 [1]) was 830 nM, the GI50 (MDA-MB-468 [2]) was 270 nM and the Cmax [3] was 501 ng/mL. For the same compound, the Tmax [4] was 0.67 h, the half-life [5] was 4.27 h and the AUC [6] was 2700 ng·h/mL. The MRT [7] was 5.49 h.
Work on [2H]c1nc([2H])n(C2CCC(C)(C)C(/C=C/C(C)=C/C=C/C(C)=C/C(=O)Nc3c([2H])c([2H])c(F)c([2H])c3[2H])=C2C)c1[2H] (racemic) yielded a GI50 (MDA-MB-231 [1]) of 620 nM, a GI50 (MDA-MB-468 [2]) of 250 nM and a Cmax [3] of 455 ng/mL. It also gave a Tmax [4] of 0.83 h, a half-life [5] of 4.34 h and an AUC [6] of 2060 ng·h/mL. For the same compound, the MRT [7] was 2.89 h.
Work on [2H]c1c([2H])c(NC(=O)/C=C(C)/C=C/C=C(C)/C=C/C2=C(C)C(n3ccnc3)CCC2(C)C)c([2H])c([2H])c1F (racemic) yielded a GI50 (MDA-MB-231 [1]) of 770 nM, a GI50 (MDA-MB-468 [2]) of 270 nM and a Cmax [3] of 273 ng/mL. For the same compound, the Tmax [4] was 0.83 h, the half-life [5] was 4.9 h and the AUC [6] was 1730 ng·h/mL. For the same compound, the MRT [7] was 4.63 h.
With [2H]c1nc([2H])n(C2CCC(C)(C)C(/C=C/C(C)=C/C=C/C(C)=C/C(=O)Nc3ccc(F)cc3)=C2C)c1[2H] (racemic) the GI50 (MDA-MB-231 [1]) was 710 nM, the GI50 (MDA-MB-468 [2]) was 280 nM and the Cmax [3] was 151 ng/mL. The Tmax [4] was 1.33 h, the half-life [5] was 8.39 h and the AUC [6] was 1740 ng·h/mL. It also gave an MRT [7] of 3.57 h.
[2H]C1(n2ccnc2)CCC(C)(C)C(/C=C/C(C)=C/C=C/C(C)=C/C(=O)Nc2ccc(F)cc2)=C1C (racemic) showed a GI50 (MDA-MB-231 [1]) of 860 nM, a GI50 (MDA-MB-468 [2]) of 190 nM and a Cmax [3] of 1030 ng/mL. It also gave a Tmax [4] of 2.5 h, a half-life [5] of 12.1 h and an AUC [6] of 17600 ng·h/mL. The MRT [7] was 9.06 h.
Work on [2H]c1c([2H])c(NC(=O)/C=C(C)/C=C/C=C(C)/C=C/C2=C(C)C([2H])(n3ccnc3)CCC2(C)C)c([2H])c([2H])c1F (racemic) yielded a GI50 (MDA-MB-231 [1]) of 620 nM, a GI50 (MDA-MB-468 [2]) of 270 nM and a Cmax [3] of 1360 ng/mL. For the same compound, the Tmax [4] was 0.75 h, the half-life [5] was 10.2 h and the AUC [6] was 15500 ng·h/mL. The MRT [7] was 8.48 h.
With CC1=C(/C=C/C(C)=C/C=C/C(C)=C/C(=O)Nc2ccc(F)cc2)C(C)(C)CCC1n1ccnc1 (racemic; form 1) [listing 1 of 2 here] the GI50 (MDA-MB-231 [1]) was 830 nM, the GI50 (MDA-MB-468 [2]) was 400 nM and the Cmax [3] was 4650 ng/mL. For the same compound, the Tmax [4] was 0.83 h, the half-life [5] was 3.61 h and the AUC [6] was 22800 ng·h/mL. For the same compound, the MRT [7] was 3.02 h.
For CC1=C(/C=C/C(C)=C/C=C/C(C)=C/C(=O)Nc2ccc(F)cc2)C(C)(C)CCC1n1ccnc1 (racemic; form 1) [listing 2 of 2 here], the Activity (MDA-MB-231 [8]; [17]) was “Dde”, the Activity (MDA-MB-468 [9]; [17]) was “Dde” and the Activity (MDA-MB-231 [10]; [17]) was “Dde”. For the same compound, the Activity (MDA-MB-468 [11]; [17]) was “Dde”, the Activity (MDA-MB-231 [12]; [17]) was “Dde” and the Activity (MDA-MB-468 [13]; [17]) was “Dde”. The Activity (MDA-MB-231 [14]; [17]) was “Dde” and the Activity (MDA-MB-231 [15]; [17]) was “Dde”.
With CC1=C(/C=C/C(C)=C/C=C/C(C)=C/C(=O)Nc2ccc(F)cc2)C(C)(C)CCC1n1ccnc1 (racemic; form 2) the Activity (MDA-MB-231 [8]; [18]) was “Dde”, the Activity (MDA-MB-468 [9]; [19]) was “Dde” and the Activity (MDA-MB-231 [10]; [19]) was “Dde”. The Activity (MDA-MB-468 [11]; [18]) was “Dde”, the Activity (MDA-MB-231 [12]; [18]) was “Dde” and the Activity (MDA-MB-468 [13]; [18]) was “Dde”. The Activity (MDA-MB-231 [14]; [18]) was “Dde” and the Activity (MDA-MB-231 [15]; [18]) was “Dde”.
For CC1=C(/C=C/C(C)=C/C=C/C(C)=C/C(=O)Nc2ccc(F)cc2)C(C)(C)CCC1n1ccnc1 (racemic; form 3), the Activity (MDA-MB-231 [8]; [19]) was “Dde”, the Activity (MDA-MB-468 [9]; [18]) was “Dde” and the Activity (MDA-MB-231 [10]; [19]) was “Dde”. The Activity (MDA-MB-468 [11]; [18]) was “Dde”, the Activity (MDA-MB-231 [12]; [19]) was “Dde” and the Activity (MDA-MB-468 [13]; [18]) was “Dde”. For the same compound, the Activity (MDA-MB-231 [14]; [19]) was “Dde” and the Activity (MDA-MB-231 [15]; [19]) was “Dde”.
With CC1=C(/C=C/C(C)=C/C=C/C(C)=C/C(=O)Nc2ccc(F)cc2)C(C)(C)CCC1n1ccnc1 (racemic; form 4) the Activity (MDA-MB-231 [8]; [19]) was “Dde”, the Activity (MDA-MB-468 [9]; [18]) was “Dde” and the Activity (MDA-MB-231 [10]; [19]) was “Dde”. The Activity (MDA-MB-468 [11]; [18]) was “Dde”, the Activity (MDA-MB-231 [12]; [18]) was “Dde” and the Activity (MDA-MB-468 [13]; [19]) was “Dde”. For the same compound, the Activity (MDA-MB-231 [14]; [19]) was “Dde” and the Activity (MDA-MB-231 [15]; [19]) was “Dde”.
With CC1=C(/C=C/C(C)=C/C=C/C(C)=C/C(=O)Nc2ccc(F)cc2)C(C)(C)CCC1n1ccnc1 (racemic; form 5) the Activity (MDA-MB-231 [8]; [18]) was “Dde”, the Activity (MDA-MB-468 [9]; [18]) was “Dde” and the Activity (MDA-MB-231 [10]; [18]) was “Dde”. The Activity (MDA-MB-468 [11]; [19]) was “Dde”, the Activity (MDA-MB-231 [12]; [18]) was “Dde” and the Activity (MDA-MB-468 [13]; [19]) was “Dde”. The Activity (MDA-MB-231 [14]; [18]) was “Dde” and the Activity (MDA-MB-231 [15]; [18]) was “Dde”.
For CC1=C(/C=C/C(C)=C/C=C/C(C)=C/C(=O)Nc2ccc(F)cc2)C(C)(C)CCC1n1ccnc1 (racemic; form 6), the Activity (MDA-MB-231 [8]; [18]) was “Dde”, the Activity (MDA-MB-468 [9]; [19]) was “Dde” and the Activity (MDA-MB-231 [10]; [18]) was “Dde”. For the same compound, the Activity (MDA-MB-468 [11]; [18]) was “Dde”, the Activity (MDA-MB-231 [12]; [19]) was “Dde” and the Activity (MDA-MB-468 [13]; [18]) was “Dde”. The Activity (MDA-MB-231 [14]; [18]) was “Dde” and the Activity (MDA-MB-231 [15]; [18]) was “Dde”.
For CC1=C(/C=C/C(C)=C/C=C/C(C)=C/C(=O)Nc2ccc(F)cc2)C(C)(C)CCC1n1ccnc1 (racemic; form 7), the Activity (MDA-MB-231 [8]; [18]) was “Dde”, the Activity (MDA-MB-468 [9]; [19]) was “Dde” and the Activity (MDA-MB-231 [10]; [19]) was “Dde”. The Activity (MDA-MB-468 [11]; [19]) was “Dde”, the Activity (MDA-MB-231 [12]; [18]) was “Dde” and the Activity (MDA-MB-468 [13]; [19]) was “Dde”. For the same compound, the Activity (MDA-MB-231 [14]; [18]) was “Dde” and the Activity (MDA-MB-231 [15]; [18]) was “Dde”.
For CC1=C(/C=C/C(C)=C/C=C/C(C)=C/C(=O)Nc2ccc(F)cc2)C(C)(C)CCC1n1ccnc1 (racemic; form 8), the Activity (MDA-MB-231 [8]; [19]) was “Dde”, the Activity (MDA-MB-468 [9]; [19]) was “Dde” and the Activity (MDA-MB-231 [10]; [19]) was “Dde”. The Activity (MDA-MB-468 [11]; [18]) was “Dde”, the Activity (MDA-MB-231 [12]; [18]) was “Dde” and the Activity (MDA-MB-468 [13]; [19]) was “Dde”. The Activity (MDA-MB-231 [14]; [19]) was “Dde” and the Activity (MDA-MB-231 [15]; [18]) was “Dde”.
Work on CC(=O)O[C@H]1C(=O)[C@@]2(C)[C@H]([C@H](OC(=O)c3ccccc3)[C@]3(O)C[C@H](OC(=O)[C@H](O)[C@@H](NC(=O)c4ccccc4)c4ccccc4)C(C)=C1C3(C)C)[C@]1(OC(C)=O)CO[C@@H]1C[C@@H]2O [PACLITAXEL] yielded a GI50 (MDA-MB-231 [1]) of 220 nM, a GI50 (MDA-MB-468 [2]) of 100 nM and a GI50 (MDA-MB-231 [16]) of 300 nM.
